Experimental data as given in patent US8106055B2, “Substituted amide compounds” (Gruenenthal GmbH, priority 2007, dated 2012).

Columns and labels:
human μ opiate receptor = molecular target: T1, human μ opiate receptor (Homo sapiens, UniProt P35372); assay: Affinity for the human μ opiate receptor ([3H]-naloxone displacement, CHO-K1 receptor membrane preparation, SPA); assay type: binding; settings: test concentration of 1 μM; for inhibition at 1 µM: read-out: μ (binding on the μ opioid receptor, % inhibition)
T1 construct: purchased PerkinElmer Life Sciences, Zaventem, Belgium RB-HOM; host or cells: CHO-K1 cells (membrane preparation)
Method in brief: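 Displacement of 1 nmol/l [3H]-naloxone measured by SPA counting after 90 min at room temperature, using human μ receptor CHO-K1 membrane preparation in Tris-HCl buffer with 0.06% BSA. Test substances at 1 μmol/l give % inhibition; dilution series yield IC50, then Ki (Cheng-Prusoff); non-specific binding with 100 μmol/l naloxone.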

[1] = molecular target: T2, bradykinin 1 receptor (B1R) of the rat (Rattus norvegicus, UniProt P97583); assay: Functional investigation on the rat bradykinin 1 receptor (B1R), Ca2+ FLIPR assay in CHO K1 rB1R cells; assay type: cell-based; settings: test substance 10 μM, Ca2+ FLIPR, CHO K1 rB1R cells; for inhibition at 10 µM: CHO-K1, B1R antagonism rat, read-out: B1R Ant. r [10 μM] % Inhibition; for B1R Ant. r [10 μM] % Inhibition: B1R antagonism rat
T2 construct: expressed in transfected cells; host or cells: CHO K1 cells
T2 sequence (P97583 1-337): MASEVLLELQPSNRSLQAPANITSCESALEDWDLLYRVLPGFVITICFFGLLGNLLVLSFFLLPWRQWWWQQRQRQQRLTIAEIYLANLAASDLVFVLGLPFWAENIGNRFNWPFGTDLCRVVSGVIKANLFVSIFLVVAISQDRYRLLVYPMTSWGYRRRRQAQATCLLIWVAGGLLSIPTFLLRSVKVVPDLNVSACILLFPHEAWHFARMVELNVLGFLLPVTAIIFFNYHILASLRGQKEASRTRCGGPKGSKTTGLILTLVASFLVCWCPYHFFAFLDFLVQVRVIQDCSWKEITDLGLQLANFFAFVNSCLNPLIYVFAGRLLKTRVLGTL
Method in brief: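 Fluo-4 Ca2+ readout, peak fluorescence. Stable CHO K1 transfectants; compound pre-incubated 10-20 min, then EC80 agonist—Lys-Des-Arg9-BK for hB1R, Des-Arg9-BK for rB1R. % inhibition vs maximal inhibition; IC50 from multiple concentrations, duplicate/triplicate, ≥2 independent runs.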

T1 sequence (P35372 whole entry): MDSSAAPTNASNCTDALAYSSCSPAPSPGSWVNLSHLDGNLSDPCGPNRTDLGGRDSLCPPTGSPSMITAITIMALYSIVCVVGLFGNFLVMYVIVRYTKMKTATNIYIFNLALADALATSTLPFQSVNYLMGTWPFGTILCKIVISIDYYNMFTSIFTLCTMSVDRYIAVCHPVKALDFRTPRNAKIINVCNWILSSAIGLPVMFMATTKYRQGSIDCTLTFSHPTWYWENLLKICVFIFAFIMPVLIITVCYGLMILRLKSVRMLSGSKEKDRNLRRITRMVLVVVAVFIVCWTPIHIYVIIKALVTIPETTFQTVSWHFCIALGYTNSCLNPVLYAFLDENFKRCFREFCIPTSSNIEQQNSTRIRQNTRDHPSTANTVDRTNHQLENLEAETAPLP

COc1cc(C)c(S(=O)(=O)N2CCCC(OCC(=O)NCCC3CCC(C(c4cccs4)N(C)C)CC3)C2)c(C)c1C (stereo not shown) [Example 130, N-(2-(4-((dimethylamino)(thiophen-2-yl)methyl)cyclohexyl)ethyl)-2-(1-(4-methoxy-2,3,6-trimethylphenylsulfonyl)piperidin-3-yloxy)acetamide]
inhibition at 1 µM (human μ opiate receptor): 94% | inhibition at 10 µM [1]: 15%

CN(C)C(c1ccc(F)cc1)C1CCC(CNC(=O)COCCC2CCN(S(=O)(=O)c3ccccc3)CC2)CC1 (stereo not shown) [Example 583]
μ (binding on the μ opioid receptor, % inhibition) (human μ opiate receptor): 7% | B1R Ant. r [10 μM] % Inhibition [1]: 20%

CN(C)C(c1ccc(Cl)cc1)C1CCC(CNC(=O)COCCC2CCN(S(=O)(=O)c3ccccc3)CC2)CC1 (stereo not shown) [Example 584]
μ (binding on the μ opioid receptor, % inhibition) (human μ opiate receptor): 7% | B1R Ant. r [10 μM] % Inhibition [1]: 41%

CN(C)C(c1cccs1)C1CCC(CNC(=O)COCC2CCCN(S(=O)(=O)c3ccccc3)C2)CC1 (stereo not shown) [Example 101, N-((4-((dimethylamino)(thiophen-2-yl)methyl)cyclohexyl)methyl)-2-((1-(phenylsulfonyl)piperidin-3-yl)methoxy)acetamide]
inhibition at 1 µM (human μ opiate receptor): 92% | inhibition at 10 µM [1]: 27%

COc1ccc(S(=O)(=O)N(C)CCOCC(=O)NCC2CCC(C(CCc3ccccc3)N(C)C)CC2)cc1OC (stereo not shown) [Example 571]
μ (binding on the μ opioid receptor, % inhibition) (human μ opiate receptor): 14% | B1R Ant. r [10 μM] % Inhibition [1]: 15%

COc1ccc(S(=O)(=O)N2CCCCC2COCC(=O)NCCC2CCC(C(c3cccs3)N(C)C)CC2)c(OC)c1 (stereo not shown) [Example 107, 2-((1-(2,4-dimethoxyphenylsulfonyl)piperidin-2-yl)methoxy)-N-(2-(4-((dimethylamino)(thiophen-2-yl)methyl)cyclohexyl)ethyl)acetamide]
inhibition at 1 µM (human μ opiate receptor): 92% | inhibition at 10 µM [1]: 49%

CN(C)C(CCc1ccccc1)C1CCC(CNC(=O)COCCN(C)S(=O)(=O)c2c(Cl)cccc2Cl)CC1 (stereo not shown) [Example 580]
μ (binding on the μ opioid receptor, % inhibition) (human μ opiate receptor; 1 µM): 13% | B1R Ant. r [10 μM] % Inhibition [1]: 44%

COc1ccc(S(=O)(=O)N2CCCCC2CCOCC(=O)NC2CCC(C(c3cccs3)N(C)C)CC2)cc1 (stereo not shown) [Example 6, N-(4-((dimethylamino)(thiophen-2-yl)methyl)cyclohexyl)-2-(2-(1-(4-methoxyphenylsulfonyl)piperidin-2-yl)ethoxy)acetamide]
inhibition at 1 µM (human μ opiate receptor): 99% | inhibition at 10 µM [1]: 34%

COc1cc(C)c(S(=O)(=O)N(CCOCC(=O)NCCC2CCC(C(c3ccc(Cl)cc3)N(C)C)CC2)Cc2ccccc2)c(C)c1 (stereo not shown) [Example 569]
μ (binding on the μ opioid receptor, % inhibition) (human μ opiate receptor): 10% | B1R Ant. r [10 μM] % Inhibition [1]: 9%

COc1ccc(S(=O)(=O)N2CCCCC2COCC(=O)NCC2CCC(C(CCc3ccccc3)N(C)C)CC2)c(OC)c1 (stereo not shown) [Example 486]
μ (binding on the μ opioid receptor, % inhibition) (human μ opiate receptor; 1 µM): 36% | B1R Ant. r [10 μM] % Inhibition [1]: 20%

CN(C)C(c1cccc(F)c1)C1CCC(CCNC(=O)COCCN(C)S(=O)(=O)c2ccc(Cl)cc2Cl)CC1 (stereo not shown) [Example 126, 2-(2-(2,4-dichloro-N-methylphenylsulfonamido)ethoxy)-N-(2-(4-((dimethylamino)(3-fluorophenyl)methyl)cyclohexyl)ethyl)acetamide]
inhibition at 1 µM (human μ opiate receptor): 92% | inhibition at 10 µM [1]: 59%

CN(C)C(c1cccs1)C1CCC(CCNC(=O)COCC2CCCN(S(=O)(=O)c3ccccc3)C2)CC1 (stereo not shown) [Example 115, N-(2-(4-((dimethylamino)(thiophen-2-yl)methyl)cyclohexyl)ethyl)-2-((1-(phenylsulfonyl)piperidin-3-yl)methoxy)acetamide]
inhibition at 1 µM (human μ opiate receptor): 91% | inhibition at 10 µM [1]: 21%

Cc1ccc(S(=O)(=O)N2CCC(OCC(=O)NCC3CCC(C(c4ccccc4)N(C)C)CC3)C2)cc1 (stereo not shown) [Example 125, N-((4-((dimethylamino)(phenyl)methyl)cyclohexyl)methyl)-2-(1-tosylpyrrolidin-3-yloxy)acetamide]
inhibition at 1 µM (human μ opiate receptor): 91% | inhibition at 10 µM [1]: 6%

CN(C)C(c1ccccc1)C1CCC(CNC(=O)COCCN(C)S(=O)(=O)c2ccc(F)cc2)CC1 (stereo not shown) [Example 112, N-((4-((dimethylamino)(phenyl)methyl)cyclohexyl)methyl)-2-(2-(4-fluoro-N-methylphenylsulfonamido)ethoxy)acetamide]
inhibition at 1 µM (human μ opiate receptor): 82% | inhibition at 10 µM [1]: 5%

CN(C)C(c1cccs1)C1CCC(CNC(=O)COC2CCN(S(=O)(=O)c3ccc(F)cc3)C2)CC1 (stereo not shown) [Example 97, N-((4-((dimethylamino)(thiophen-2-yl)methyl)cyclohexyl)methyl)-2-(1-(4-fluorophenylsulfonyl)pyrrolidin-3-yloxy)acetamide]
inhibition at 1 µM (human μ opiate receptor): 92% | inhibition at 10 µM [1]: 28%

COc1cc(C)c(S(=O)(=O)N2CCC(CCOCC(=O)NCCC3CCC(C(c4ccc(Cl)cc4)N(C)C)CC3)CC2)c(C)c1C (stereo not shown) [Example 561]
μ (binding on the μ opioid receptor, % inhibition) (human μ opiate receptor): 26% | B1R Ant. r [10 μM] % Inhibition [1]: −12%

CN(C)C(c1ccccc1)C1CCC(CNC(=O)COC2CCCN(S(=O)(=O)c3ccccc3)C2)CC1 (stereo not shown) [Example 114, N-((4-((dimethylamino)(phenyl)methyl)cyclohexyl)methyl)-2-(1-(phenylsulfonyl)piperidin-3-yloxy)acetamide]
inhibition at 1 µM (human μ opiate receptor): 85% | inhibition at 10 µM [1]: 8%

COc1cc(C)c(S(=O)(=O)N2CCC(OCC(=O)NCC3CCC(C(CCc4ccccc4)N(C)C)CC3)CC2)c(C)c1C (stereo not shown) [Example 546]
μ (binding on the μ opioid receptor, % inhibition) (human μ opiate receptor): 33% | B1R Ant. r [10 μM] % Inhibition [1]: 59%

COc1cc(C)c(S(=O)(=O)N(CCOCC(=O)NCCC2CCC(C(c3ccc(F)cc3)N(C)C)CC2)Cc2ccccc2)c(C)c1C (stereo not shown) [Example 554]
μ (binding on the μ opioid receptor, % inhibition) (human μ opiate receptor): 28% | B1R Ant. r [10 μM] % Inhibition [1]: −11%

CN(C)C(CCc1ccccc1)C1CCC(CNC(=O)COC2CCN(S(=O)(=O)c3ccc(F)cc3)C2)CC1 (stereo not shown) [Example 574]
μ (binding on the μ opioid receptor, % inhibition) (human μ opiate receptor): 18% | B1R Ant. r [10 μM] % Inhibition [1]: 26%

COc1ccc(S(=O)(=O)N2Cc3ccccc3CC2COCC(=O)NCC2CCC(C(c3cccs3)N(C)C)CC2)cc1 (stereo not shown) [Example 7, N-((4-((dimethylamino)(thiophen-2-yl)methyl)cyclohexyl)methyl)-2-((2-(4-methoxyphenylsulfonyl)-1,2,3,4-tetrahydroisoquinolin-3-yl)methoxy)acetamide]
inhibition at 1 µM (human μ opiate receptor): 99% | inhibition at 10 µM [1]: 27%

CN(C)C(CCc1ccccc1)C1CCC(CNC(=O)COC2CCN(S(=O)(=O)c3ccccc3)CC2)CC1 (stereo not shown) [Example 578]
μ (binding on the μ opioid receptor, % inhibition) (human μ opiate receptor): 12% | B1R Ant. r [10 μM] % Inhibition [1]: 12%

COc1ccc(S(=O)(=O)N(C)CCOCC(=O)NC2CCC(C(c3ccc(F)cc3)N(C)C)CC2)cc1 (stereo not shown) [Example 549]
μ (binding on the μ opioid receptor, % inhibition) (human μ opiate receptor): 29% | B1R Ant. r [10 μM] % Inhibition [1]: 40%

Cc1cc(C)c(S(=O)(=O)N(C)CCOCC(=O)NCCC2CCC(C(c3cccc(F)c3)N(C)C)CC2)c(C)c1 (stereo not shown) [Example 587]
μ (binding on the μ opioid receptor, % inhibition) (human μ opiate receptor): −5% | B1R Ant. r [10 μM] % Inhibition [1]: 16%

COc1ccc(S(=O)(=O)N2CCCCC2COCC(=O)NCC2CCC(C(CCc3ccccc3)N(C)C)CC2)cc1OC (stereo not shown) [Example 559]
μ (binding on the μ opioid receptor, % inhibition) (human μ opiate receptor; 1 µM): 14% | B1R Ant. r [10 μM] % Inhibition [1]: −12%

COc1ccc(S(=O)(=O)N2CCC(OCC(=O)NCC3CCC(C(CCc4ccccc4)N(C)C)CC3)C2)cc1OC (stereo not shown) [Example 566]
μ (binding on the μ opioid receptor, % inhibition) (human μ opiate receptor): 19% | B1R Ant. r [10 μM] % Inhibition [1]: 22%

COc1cc(C)c(S(=O)(=O)N(CCOCC(=O)NCC2CCC(C(c3ccc(Cl)cc3)N(C)C)CC2)Cc2ccccc2)c(C)c1C (stereo not shown) [Example 560]
μ (binding on the μ opioid receptor, % inhibition) (human μ opiate receptor): 22% | B1R Ant. r [10 μM] % Inhibition [1]: −5%

CN(C)C(c1ccccc1)C1CCC(NC(=O)COCCN(C)S(=O)(=O)c2c(Cl)cccc2Cl)CC1 (stereo not shown) [Example 135, 2-(2-(2,6-dichloro-N-methylphenylsulfonamido)ethoxy)-N-(4-((dimethylamino)(phenyl)methyl)cyclohexyl)acetamide]
inhibition at 1 µM (human μ opiate receptor): 89% | inhibition at 10 µM [1]: 29%

COc1cc(C)c(S(=O)(=O)N(CCOCC(=O)NCC2CCC(C(CCc3ccccc3)N(C)C)CC2)Cc2ccccc2)c(C)c1C (stereo not shown) [Example 562]
μ (binding on the μ opioid receptor, % inhibition) (human μ opiate receptor): 23% | B1R Ant. r [10 μM] % Inhibition [1]: 23%

COc1cc(C)c(S(=O)(=O)N(CCOCC(=O)NCC2CCC(C(c3ccc(F)cc3)N(C)C)CC2)Cc2ccccc2)c(C)c1C (stereo not shown) [Example 563]
μ (binding on the μ opioid receptor, % inhibition) (human μ opiate receptor): 25% | B1R Ant. r [10 μM] % Inhibition [1]: −16%

CN(C)C(CCc1ccccc1)C1CCC(CNC(=O)COC2CCN(S(=O)(=O)c3ccc(Cl)cc3)C2)CC1 (stereo not shown) [Example 557]
μ (binding on the μ opioid receptor, % inhibition) (human μ opiate receptor): 26% | B1R Ant. r [10 μM] % Inhibition [1]: 29%

CN(C)C(CCc1ccccc1)C1CCC(CNC(=O)COC2CCCN(S(=O)(=O)c3ccccc3)C2)CC1 (stereo not shown) [Example 558]
μ (binding on the μ opioid receptor, % inhibition) (human μ opiate receptor): 29% | B1R Ant. r [10 μM] % Inhibition [1]: 12%
